Data taken from the NIST ThermoML archive (doi:10.1016/j.fluid.2008.01.024).
Numbers after ± are expanded uncertainties. Blank lines part the entries; values can stand above or below the compound they belong to.

Legend:
[1] = relative permittivity at zero frequency (dimensionless); conditions: 303.15 K; 101 kPa; Liquid; capacitive measurement method
[2] = relative permittivity at zero frequency (dimensionless); xn = mol fraction of the nth substance listed; conditions: 303.15 K, 101 kPa, Liquid, capacitive measurement method

Structure (SMILES): CN(C)CCO [2-(N,N-dimethylamino)ethanol]
relative permittivity at zero frequency [1]: 17.18 ± 0.1

Structure (SMILES): CN(C)C=O [dimethylformamide]
relative permittivity at zero frequency [1]: 36.55 ± 0.22

Structure (SMILES): CN(C)C=O [dimethylformamide] + OCC(O)CO
relative permittivity at zero frequency ([2]; x2 = 0): 36.55 ± 0.22

Structure (SMILES): CN(C)CCO [2-(N,N-dimethylamino)ethanol] + OCC(O)CO
relative permittivity at zero frequency ([2]; x2 = 0): 17.18 ± 0.1
relative permittivity at zero frequency ([2]; x2 = 0.09): 18.66 ± 0.11
relative permittivity at zero frequency ([2]; x2 = 0.175): 20.4 ± 0.12
relative permittivity at zero frequency ([2]; x2 = 0.257): 22.09 ± 0.13
relative permittivity at zero frequency ([2]; x2 = 0.334): 23.83 ± 0.14
relative permittivity at zero frequency ([2]; x2 = 0.409): 25.5 ± 0.15
relative permittivity at zero frequency ([2]; x2 = 0.48): 27.25 ± 0.16
relative permittivity at zero frequency ([2]; x2 = 0.547): 28.98 ± 0.17
relative permittivity at zero frequency ([2]; x2 = 0.612): 30.54 ± 0.18
relative permittivity at zero frequency ([2]; x2 = 0.675): 32.59 ± 0.2
relative permittivity at zero frequency ([2]; x2 = 0.734): 33.74 ± 0.2
relative permittivity at zero frequency ([2]; x2 = 0.792): 35.03 ± 0.21
relative permittivity at zero frequency ([2]; x2 = 0.847): 37.13 ± 0.22
relative permittivity at zero frequency ([2]; x2 = 0.9): 38.63 ± 0.23
relative permittivity at zero frequency ([2]; x2 = 0.951): 39.96 ± 0.24

The remaining lines, values ahead:

relative permittivity at zero frequency ([2]; x2 = 0): 106.14 ± 0.64
relative permittivity at zero frequency ([2]; x2 = 0.037): 103.13 ± 0.62
relative permittivity at zero frequency ([2]; x2 = 0.077): 100.3 ± 0.6
relative permittivity at zero frequency ([2]; x2 = 0.12): 96.91 ± 0.58
relative permittivity at zero frequency ([2]; x2 = 0.165): 93.46 ± 0.56
relative permittivity at zero frequency ([2]; x2 = 0.214): 89.87 ± 0.54
relative permittivity at zero frequency ([2]; x2 = 0.266): 85.74 ± 0.51
relative permittivity at zero frequency ([2]; x2 = 0.322): 81.37 ± 0.49
relative permittivity at zero frequency ([2]; x2 = 0.383): 76.3 ± 0.46
relative permittivity at zero frequency ([2]; x2 = 0.449): 71.94 ± 0.43
relative permittivity at zero frequency ([2]; x2 = 0.521): 66.48 ± 0.4
relative permittivity at zero frequency ([2]; x2 = 0.599): 61.52 ± 0.37
relative permittivity at zero frequency ([2]; x2 = 0.685): 56.42 ± 0.34
relative permittivity at zero frequency ([2]; x2 = 0.779): 50.76 ± 0.3
relative permittivity at zero frequency ([2]; x2 = 0.884): 45.45 ± 0.27
Structure (SMILES): NC=O [formamide] + OCC(O)CO

relative permittivity at zero frequency [1]: 106.14 ± 0.64
Structure (SMILES): NC=O [formamide]
